According to patent US20230277569A1, “Compositions and Methods for Treating, Ameliorating and/or Preventing Cancer and Kits for the Same” (priority 2022, published 2023):
Entries after “also recorded” stand apart in the source; their conditions may differ. Read-outs that look alike come from different tables or passages of the source.

Columns and labels:
beagle dogs = test: Toxicity in beagle dogs, IV infusion for 36 d; assay type: in vivo
Protocol: Eighteen male and female (5-6 mo old) purebred beagle dogs (Cumberland, Va.) were acclimated for 47 d (20 to 26° C., relative humidity 30-70%, 10 or greater air changes/h, and a 12-h light/dark cycle) prior to study initiation. Animals were given water ad libitum and Certified Canine Diet #5007 (PMI Nutrition International Certified LabDiet®) for 4 to 5 h each day. At study initiation, animal body weights ranged from 8.6 to 11.5 kg for males and 6.0 to 9.4 kg for females. At least 1 week prior to initiation of dosing, animals were fasted overnight, anesthetized, and a catheter attached to a subcutaneous vascular access port was surgically implanted into a jugular vein. Animals were acclimated to infusion jackets prior to catheter implantation surgery. Animals were infused with sterile saline at a dose rate of 5 mL/h when the vascular access ports were accessed and when animals were connected to the infusion system (except when dosed with the test or vehicle control article). The patency of each catheter was checked as needed. Prednisolone tablets were administered orally at 2 mg/kg the night prior to dosing. Diphenhydramine (5 mg/kg; IM injection 0.1 mL/kg, 50 mg/mL) was administered prior to dosing and post the start of infusion (d 1 only). Male and female dogs received dose levels of Gamitrinib of 1.25, 3.33 and 6.25 mg/kg/dose formulated as indicated above during a 1 h infusion on d 1, 8, 11, 15, 18, 22, 25, 29, 32, and 36 at a volume of 2 mL/kg. The vehicle control was as above. […] Dosing was stopped, and 23 of 24 animals were administered additional diphenhydramine, 11 were administered Flunixin meglumine and buprenorphine, and 6 were administered acepromazine. Symptoms subsided in all animals after completion of these interventions. As a result of these observations, the polysorbate levels, which were increased from 0.025% (w/v) to 0.125% (w/v) to minimize precipitation, were returned to the original concentrations; 2 mg/kg prednisone was administered orally the night prior to dosing; and the diphenhydramine pretreatment dose was updated to 5 mg/kg 15 to 30 min prior to dosing. Detailed observations were conducted for each animal up to seven times during the predose phase, prior to dosing on d 1, 8, 15, 22, 29, and 36 of the dosing phase, and on d 1, 7, and 14 of the recovery phase. Blood samples (1 mL) were collected via the cephalic vein 5, 15, and 30 min and 1, 4, 8, and 24 h post the end of infusion on d 8 and 36 of the dosing phase. Formalin-fixed and paraffin-embedded tissue samples collected at the end of the study (d 39) were processed for histologic examination.

[1] = Plasma protein binding (rapid equilibrium dialysis); assay type: in vitro ADME, human; conditions: human, plasma, 4-h incubation, 37° C.
Protocol: (§1) Spiked plasma samples were prepared by adding 12 μL of each working solution into 1.2 mL of blank plasma to a final concentration of 2 μg/mL. Plasma protein binding incubations were performed in triplicate by adding 500 μL of PBS into each white chamber and 300 μL of spiked plasma into each red chamber of the RED device. The device was covered with a sealing tape and placed on an orbital shaker at a shaking speed of 100 rpm at 37° C. in 5% CO2. After a 4-h incubation, a 40 μL plasma sample was transferred from each red chamber to the wells of a 96-well plate containing 160 μL of PBS. A 160 μL PBS aliquot from each white chamber was transferred to the wells of the same plate containing 40 μL of blank plasma. After matching the matrix for all samples, 400 μL aliquots of stop solution were added to each well of the 96-well sample plate. […] A 100 μL aliquot of supernatant from each well was transferred to a new 96-well sample plate and further mixed with 100 μL of Milli-Q (ultrapure) water before analysis by liquid chromatography—tandem mass spectrometry (LC-MS/MS).

plasma proteins = test: as above; assay type: in vitro ADME, human; conditions: 2 μg/mL, 4-h incubation, 37° C.
Protocol: as §1

CYP1A2 = CYP1A2 (Homo sapiens, UniProt P05177); test: CYP inhibition in liver microsomes, CYP1A2; assay type: in vitro ADME; conditions: human liver microsomes 0.1 mg/mL
Protocol: (§2) After addition of prototypical CYP substrates in 250 μL, samples were incubated for 10 min (CYP1A2, CYP2B6, CYP2C9, and CYP3A4) or 20 min (CYP2C8) at 37° C. in 5% CO2. […] Samples were analyzed for metabolite formation by LC-MS/MS. The results were expressed using the peak area ratio of analyte to internal standard, based on the calibration curves.
(§3) where Range=fitted uninhibited value, s=slope factor, x=inhibitor concentration, y=% control activity.

KCNQ1/minK = KCNQ1/minK (Homo sapiens, UniProt P51787); test: Ion channel screening, KCNQ1/minK; assay type: cell-based; conditions: n=16, read-out: inhibition of KCNQ1/mink currents
Description: The parameters measured were the maximum inward current evoked on stepping to −20 mV from the 1st and 26th pulse. Human Kv4.3/KChIP2 currents were evoked from a holding potential of −80 mV by a series of four 500 msec pulses to 0 mV using a 1000 msec interval between pulses. The parameter measured was the amplitude of the outward current 50 msec after the onset of the 4th voltage step to 0 mV. Human Cav1.2 currents were evoked by 2 pulses to −10 mV from a holding potential of −100 mV. The parameters measured were the maximum inward currents evoked on stepping to −10 mV from the holding potential of −100 mV for the 1st and 2nd pulse. Human Kv1.5 currents were evoked by a single pulse from a holding potential of −80 mV to a potential of 0 mV for 4 sec before returning to −80 mV. The parameters measured were the maximum amplitude of outward currents evoked at the beginning of the voltage pulse and at the end of the voltage step from −80 mV to 0 mV. Human KCNQ1/minK currents were evoked by a single pulse delivered from a holding potential of −80 mV to +60 mV for 4 sec before returning to −80 mV. The parameter measured was the maximum outward current evoked on stepping to +60 mV from the holding potential of −80 mV. hERG currents were evoked by a three-pulse protocol where voltage was first stepped to +40 mV for two sec from a holding potential of −80 mV to inactivate hERG channels. […]

hERG [2] = biological target: T1, hERG (Homo sapiens, UniProt Q12809); test: Patch clamp recording of hERG currents in transfected HEK293 cells; assay type: cell-based
T1 construct: expressed in transfected cells; host or cells: HEK293 (ATCC), polyclonal, stably transfected, G418 selection
Protocol: Caco-2 and HEK293 cells were obtained from the American Type Culture Collection (ATCC, Manasass, Va.) and grown in culture according to the supplier's specifications. In some experiments, HEK293 cells were stably transfected with hERG cDNA and polyclonal cultures were maintained in the presence of 250 μg/ml geneticin (G418).
For electrophysiology recording, a micropipette was pulled from borosilicate glass with the pipette tip resistance between 3˜5 MΩ. For each experiment, polyclonal HEK293 cells stably transfected with hERG cDNA and maintained in 250 μg/ml Geneticin (G418) were plated on 35 mm dishes on the microscope stage and a commercial patch clamp amplifier was used for the whole cell recordings. The tail currents were evoked at 22° C. once every 30 sec by a 3 sec-50 mV repolarizing pulse following a 2 sec+50 mV depolarizing pulse with a hold voltage of −80 mV. A 50 msec depolarized pulse to −50 mV at the beginning of the voltage protocol served as a baseline for calculating the amplitude of the peak tail current. The hERG currents were allowed to stabilize over a 3 min period in the presence of vehicle alone prior to Gamitrinib application. The cells were kept in the test solution until the peak tail current was stable (<5% change) for ˜5 sweeps or for a maximum of 6 min, whichever came first. Peak tail amplitudes were plotted as a function of the sweep number. Five peak tail current measurements at the steady state before Gamitrinib application were averaged and used as the control current amplitude. Four or five peak tail current measurements at the steady state after Gamitrinib application were averaged and used as the remaining current amplitude after inhibition by the test article. The % inhibition of the test article was calculated from the following equation: […]

CYP2C8 = CYP2C8 (Homo sapiens, UniProt P10632); test: CYP inhibition in liver microsomes, CYP2C8; assay type: in vitro ADME; conditions: human liver microsomes 0.1 mg/mL
Protocol: as §2, §3

hERG [3] = biological target: T1, hERG; test: Ion channel screening, hERG; assay type: cell-based; conditions: n=16, read-out: inhibition of hERG currents (ion channel screening)
Description: The parameter measured was the maximum outward current evoked on stepping to +60 mV from the holding potential of −80 mV. hERG currents were evoked by a three-pulse protocol where voltage was first stepped to +40 mV for two sec from a holding potential of −80 mV to inactivate hERG channels. The voltage is then stepped back to −50 mV for two sec to evoke a tail current prior to returning to the holding potential for 1 sec. The parameter measured was the amplitude of the 3rd pulse tail current upon stepping back to −50 mV after the step to +40 mV. Human HCN4 currents were evoked by a single pulse from a holding potential of −30 mV to a potential of −110 mV for 4 sec prior to returning to −30 mV. The parameter measured was the maximum inward current evoked upon stepping to −110 mV from the holding potential of −30 mV. Human Kir2.1 currents were evoked from a holding potential of −20 mV by a series of 10 500 msec pulses to −120 mV using a 200 msec interval between pulses. The parameters measured were the amplitudes of the instantaneous inward currents evoked on stepping to −120 mV for the 1st pulse and the maximum inward current at the end of the 10th hyperpolarizing pulse. For all experiments, data were filtered for seal quality, seal drop, and current amplitude.

T1 sequence (Q12809 whole entry): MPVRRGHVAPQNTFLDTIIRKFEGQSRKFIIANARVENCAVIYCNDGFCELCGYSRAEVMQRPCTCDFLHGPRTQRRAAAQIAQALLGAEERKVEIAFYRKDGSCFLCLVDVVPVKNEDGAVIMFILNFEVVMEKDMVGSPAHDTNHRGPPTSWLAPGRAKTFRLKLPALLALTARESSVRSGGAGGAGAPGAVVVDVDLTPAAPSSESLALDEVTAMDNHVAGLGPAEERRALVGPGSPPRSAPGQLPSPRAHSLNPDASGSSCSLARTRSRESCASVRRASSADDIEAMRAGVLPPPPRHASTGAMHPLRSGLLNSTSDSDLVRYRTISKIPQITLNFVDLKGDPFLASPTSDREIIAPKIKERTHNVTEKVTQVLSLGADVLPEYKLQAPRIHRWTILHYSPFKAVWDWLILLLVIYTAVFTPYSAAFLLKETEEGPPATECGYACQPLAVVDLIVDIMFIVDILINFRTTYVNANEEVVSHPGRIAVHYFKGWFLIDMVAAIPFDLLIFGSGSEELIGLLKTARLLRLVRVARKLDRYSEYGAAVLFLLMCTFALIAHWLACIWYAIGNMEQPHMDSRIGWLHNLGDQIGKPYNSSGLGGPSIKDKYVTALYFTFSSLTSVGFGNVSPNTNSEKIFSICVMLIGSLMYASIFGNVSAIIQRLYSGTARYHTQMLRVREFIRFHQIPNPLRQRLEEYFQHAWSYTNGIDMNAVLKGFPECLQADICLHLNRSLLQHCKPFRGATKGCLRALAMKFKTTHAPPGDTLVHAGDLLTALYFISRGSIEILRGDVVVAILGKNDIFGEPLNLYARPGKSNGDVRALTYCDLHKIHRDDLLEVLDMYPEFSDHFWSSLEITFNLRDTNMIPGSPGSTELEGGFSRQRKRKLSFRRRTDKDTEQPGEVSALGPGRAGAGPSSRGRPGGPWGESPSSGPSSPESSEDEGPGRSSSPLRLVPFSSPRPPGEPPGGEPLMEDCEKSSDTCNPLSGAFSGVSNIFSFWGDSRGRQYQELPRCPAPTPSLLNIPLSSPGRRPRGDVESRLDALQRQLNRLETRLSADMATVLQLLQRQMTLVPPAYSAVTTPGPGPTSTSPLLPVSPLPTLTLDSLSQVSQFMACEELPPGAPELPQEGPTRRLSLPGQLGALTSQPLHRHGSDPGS
Sequence of CYP2C8 (P10632 whole entry): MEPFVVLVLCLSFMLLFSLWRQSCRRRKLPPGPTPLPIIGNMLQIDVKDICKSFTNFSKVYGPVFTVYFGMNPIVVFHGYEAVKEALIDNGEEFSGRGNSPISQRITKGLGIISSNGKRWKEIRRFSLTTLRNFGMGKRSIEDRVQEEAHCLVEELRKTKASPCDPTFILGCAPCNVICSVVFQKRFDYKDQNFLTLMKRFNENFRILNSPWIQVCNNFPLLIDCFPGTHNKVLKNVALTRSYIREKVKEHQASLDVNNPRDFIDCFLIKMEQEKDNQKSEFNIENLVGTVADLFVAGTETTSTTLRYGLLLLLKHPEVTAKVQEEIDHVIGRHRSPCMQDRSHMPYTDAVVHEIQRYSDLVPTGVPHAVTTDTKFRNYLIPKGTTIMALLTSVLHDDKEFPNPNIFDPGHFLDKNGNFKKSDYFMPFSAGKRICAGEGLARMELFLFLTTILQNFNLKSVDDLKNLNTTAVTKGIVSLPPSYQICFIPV
Sequence of CYP1A2 (P05177 whole entry): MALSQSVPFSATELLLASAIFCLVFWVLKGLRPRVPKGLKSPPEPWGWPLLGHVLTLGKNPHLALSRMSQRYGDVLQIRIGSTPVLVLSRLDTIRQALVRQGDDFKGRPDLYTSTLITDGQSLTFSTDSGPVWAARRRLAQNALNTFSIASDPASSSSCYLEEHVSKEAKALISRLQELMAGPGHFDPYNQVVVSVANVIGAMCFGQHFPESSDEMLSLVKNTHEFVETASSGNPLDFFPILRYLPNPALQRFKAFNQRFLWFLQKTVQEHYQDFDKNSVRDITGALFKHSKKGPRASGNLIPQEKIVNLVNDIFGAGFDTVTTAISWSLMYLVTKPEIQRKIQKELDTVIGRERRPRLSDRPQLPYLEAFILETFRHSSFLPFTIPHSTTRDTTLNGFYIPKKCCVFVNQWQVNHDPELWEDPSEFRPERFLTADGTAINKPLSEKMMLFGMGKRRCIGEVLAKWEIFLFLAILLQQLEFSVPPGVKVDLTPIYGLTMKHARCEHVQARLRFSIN

**Q.** Which results are given for CO[C@H]1/C=C\C=C(/C)C(=O)NC2=CC(=O)C(NCCCCCC[P+](c3ccccc3)(c3ccccc3)c3ccccc3)=C(C[C@@H](C)C[C@H](OC)[C@H](O)[C@@H](C)/C=C(\C)[C@@H]1OC(N)=O)C2=O [Gamitrinib, 17-Demethoxy-17-((6-(triphenylphosphonio)hexyl)amino)geldanamycin]?
**A.** NOAEL (beagle dogs; beagle dogs, IV for 36 d): 3.33 mg/kg/dose; highest non-severely toxic dose (HNSTD) (beagle dogs; beagle dogs, IV for 36 d): 6.25 mg/kg/dose; Bone marrow and liver parameters (beagle dogs; dog, in vivo): unremarkable; changes in organ weights (beagle dogs; dog, in vivo): No Gamitrinib-related changes; serum urea nitrogen and creatinine (beagle dogs; dogs (both sexes), 6.25 mg/kg/dose, 6.25 mg/kg): trend of increased serum urea nitrogen and creatinine; also recorded: modest elevation of urea nitrogen and creatinine concentrations; kidney microscopic finding (beagle dogs; dogs, 6.25 mg/kg/dose, reversible during recovery): slight to moderate kidney tubular degeneration/regeneration; alterations in body weight or other clinical observations (beagle dogs; dogs, 1.25, 3.33 and 6.25 mg/kg/dose): no alterations; Body weight (beagle dogs; female dogs, 3.33 mg/kg, day 1): 7.6 ± 0.9 kg; Body weight (beagle dogs; female dogs, 3.33 mg/kg, day 8): 7.6 ± 0.9 kg; Body weight (beagle dogs; female dogs, 3.33 mg/kg, day 15): 7.6 ± 1.06 kg; Body weight (beagle dogs; female dogs, 3.33 mg/kg, day 22): 7.5 ± 0.75 kg; Body weight (beagle dogs; female dogs, 3.33 mg/kg, day 29): 7.6 ± 0.7 kg; Body weight (beagle dogs; female dogs, 3.33 mg/kg, day 36): 7.5 ± 0.8 kg; Body weight (beagle dogs; female dogs, 6.25 mg/kg, day 1): 7.7 ± 0.57 kg; Body weight (beagle dogs; female dogs, 6.25 mg/kg, day 8): 7.7 ± 0.62 kg; Body weight (beagle dogs; female dogs, 6.25 mg/kg, day 15): 7.4 ± 0.54 kg; Body weight (beagle dogs; female dogs, 6.25 mg/kg, day 22): 7.2 ± 0.6 kg; Body weight (beagle dogs; female dogs, 6.25 mg/kg, day 29): 7.3 ± 0.58 kg; Body weight (beagle dogs; female dogs, 6.25 mg/kg, day 36): 7.3 ± 0.59 kg; Body weight (beagle dogs; male dogs, 3.33 mg/kg, day 1): 10.1 ± 1.1 kg; Body weight (beagle dogs; male dogs, 3.33 mg/kg, day 8): 10 ± 1.04 kg; Body weight (beagle dogs; male dogs, 3.33 mg/kg, day 15): 9.9 ± 1.15 kg; Body weight (beagle dogs; male dogs, 3.33 mg/kg, day 22): 10.2 ± 1.21 kg; Body weight (beagle dogs; male dogs, 3.33 mg/kg, day 29): 10.1 ± 1.21 kg; Body weight (beagle dogs; male dogs, 3.33 mg/kg, day 36): 10 ± 1.36 kg; Body weight (beagle dogs; male dogs, 6.25 mg/kg, day 1): 9.9 ± 0.83 kg; Body weight (beagle dogs; male dogs, 6.25 mg/kg, day 8): 9.8 ± 0.85 kg; Body weight (beagle dogs; male dogs, 6.25 mg/kg, day 15): 9.5 ± 0.57 kg; Body weight (beagle dogs; male dogs, 6.25 mg/kg, day 22): 9.2 ± 0.57 kg; Body weight (beagle dogs; male dogs, 6.25 mg/kg, day 29): 9.2 ± 0.46 kg; Body weight (beagle dogs; male dogs, 6.25 mg/kg, day 36): 9.1 ± 0.58 kg; fraction unbound at 4 h, 2 μg/mL ([1]; read-out: average free fraction): 0.007 ± 0.0007; fraction unbound at 4 h, 2 μg/mL ([1]; read-out: bound to plasma proteins): < 0.01; bound to plasma proteins (plasma proteins): 99.3±0.07%; IC50 (CYP1A2): 32.9 µM; inhibition at 10 µM (KCNQ1/minK): 22.5 ± 1.1%; hERG IC50 relative to IC50 of inhibition of tumor growth in NCI 60-cell line screen (hERG [2]; hERG IC50 3.5 μM higher than tumor IC50): up to 20 fold; inhibition at 0.5 µM (hERG [2]; human, HEK293 cells stably transfected with hERG, pH 7.4, 0.5 μM, transfected HEK293 cells, mean±SD): -0.68 ± 3.95%; inhibition at 1 µM (hERG [2]; human, HEK293 cells stably transfected with hERG, pH 7.4, 1 μM, transfected HEK293 cells, mean±SD): 11.7 ± 6.51%; inhibition at 5 µM (hERG [2]; human, HEK293 cells stably transfected with hERG, pH 7.4, 5 μM, transfected HEK293 cells, mean±SD): 66 ± 6.78%; inhibition at 10 µM (hERG [2]; human, HEK293 cells stably transfected with hERG, pH 7.4, 10 μM, transfected HEK293 cells, mean±SD): 81.8 ± 1.88%; IC50 (hERG [2]; patch-clamp, transfected HEK293 cells, read-out: IC50 of hERG inhibition): 3.5 µM; IC50 (CYP2C8): 8 µM; inhibition at 10 µM (hERG [3]): 37.9 ± 1.7%
